Assay results from patent US11389414B2, “Methods for treating atherosclerosis with gamma-ketoaldehyde scavengers” (Vanderbilt University, priority 2017, dated 2022).

Columns and labels:
MDA-apoAI adducts = assay: Plasma apoAI immunoprecipitation and western blotting for MDA-apoAI and apoAI; type: in vivo, mouse; conditions: western diet 16 weeks
Description: (§1) Mice: Ldlr^−/− and WT on C57BL/6 background mice were obtained from the Jackson Laboratory. Animal protocols were performed according to the regulations of Vanderbilt University's Institutional Animal Care and Usage Committee. Mice were maintained on chow or a Western-type diet containing 21% milk fat and 0.15% cholesterol (Teklad). Eight week old, female mice were pretreated mice with vehicle alone (Water) or containing either 1 g/L of 4-HOBA or 1 g/L of 2-HOBA. After two weeks, the mice continued to receive treatment and were administered a Western diet for 16 weeks to induce hypercholesterolemia and atherosclerosis.
Measurement of MDA-LDL, MDA-HDL, and MDA-ApoAI: Sandwich ELISA was used to measure plasma MDA-LDL and MDA-HDL levels following the manufacturer's instructions (Cell BioLabs, Inc.). Briefly, isolated LDL or HDL samples and MDA-HDL standards were added onto anti-MDA coated plates, and after blocking, the samples were incubated with biotinylated anti-apoB or anti-ApoAI primary antibody. The samples were then incubated for 1 h with streptavidin-enzyme conjugate and 15 min with substrate solution. After stopping the reaction, the O.D. was measured at 450 nm wavelength. MDA-ApoAI was detected in mouse plasma by immunoprecipitation of ApoAI and western blotting. Briefly, 50 μl of mouse plasma were prepared with 450 μL of IP Lysis Buffer (Pierce) plus 0.5% protease inhibitor mixture (Sigma), and immunoprecipitated with 10 μg of polyclonal antibody against mouse ApoAI (Novus). Then 25 μL of magnetic beads (Invitrogen) was added, and the mixture was incubated for 1 h at 4° C. with rotation. The magnetic beads were then collected, washed three times, and SDS-PAGE sample buffer with β-mercaptoethanol was added to the beads. After incubation at 70° C. for 5 min, magnetic field was applied to the Magnetic Separation Rack (New England), and the supernatant was used for detecting mouse ApoAI or MDA. For Western blotting, 30-60 μg of proteins was resolved by NuPAGE Bis-Tris electrophoresis (Invitrogen), and transferred onto nitrocellulose membranes (Amersham Bioscience). Membranes were probed with primary rabbit antibodies specific for ApoAI (Novus) or MDA (Cell signaling) and fluorescent tagged IRDye 680 (LI-COR) secondary antibody. Proteins were visualized and quantitated by Odyssey 3.0 Quantification software (LI-COR).

[1] = background statement; cited from earlier work
[2] = system: hypercholesterolemic Ldlr^−/− mice; assay: Atherosclerosis analysis (Oil-Red-O proximal aorta cross-sections and en face aorta) in western diet fed mice; type: in vivo, mouse; conditions: western diet 16 weeks; for reduction of atherosclerosis, en face analysis of the aorta / reduction of the extent of proximal aortic atherosclerosis: 1 g/L in water
Description: as §1
(§2) Atherosclerosis Analyses and Cross-section Immunofluorescence Staining: The extent of atherosclerosis was examined both in Oil-Red-O-stained cross-sections of the proximal aorta and by en face analysis using the KS300 imaging system (Kontron Elektronik GmbH). For immunofluorescence staining, 5 μm cross-sections of the proximal aorta were fixed in cold acetone (Sigma), blocked in Background Buster (Innovex), incubated with indicated primary antibodies (MDA and CD68) at 4° C. for overnight. After incubation with fluorescent labeled secondary antibodies at 37 C for 1 hour, the nucleus was counter stained with Hoechst. Images were captured with a fluorescence microscope (Olympus IX81) and SlideBook 6 (Intelligent-Image) software and quantitated using ImageJ software (NIH).

[3] = background statement; cited from earlier work; remark: listed apart in the source
peritoneal macrophages = assay: Macrophage inflammatory response, real time PCR of IL-1β, IL-6, TNF-α mRNA; type: cell-based, mouse; conditions: oxidized LDL, 24 h
Description: (§3) Cell Culture: Peritoneal macrophages were isolated from mice 72 hours post injection of 3% thioglycollate and maintained in DMEM plus 10% fetal bovine serum (FBS, Gibco) as previously described. Human aortic endothelial cells (HAECs) were obtained from Lonza and maintained in endothelial cell basal medium-2 plus 1% FBS and essential growth factors (Lonza).
RNA Isolation and Real-Time RT-PCR: Total RNA was extracted and purified using Aurum Total RNA kit (Bio-Rad) according to the manufacturer's protocol. Complementary DNA was synthesized with iScript reverse transcriptase (Bio-Rad). Relative quantitation of the target mRNA was performed using specific primers, SYBR probe (Bio-Rad), and iTaqDNA polymerase (Bio-Rad) on IQ5 thermocylcer (Bio-Rad) and normalized with 18S, as described earlier. 18S, IL-1β and TNF-α primers used were as described earlier.

[4] = background statement; cited from earlier work; remark: listed apart in the source
aortic endothelial cells = assay: H2O2 induced apoptosis, Annexin V staining, endothelial cells; type: cell-based, mouse; conditions: 250 μM H2O2, 24 h; compared to vehicle or 4-HOBA
Description: as §3
(§4) In vitro Cellular Apoptosis and Analysis of Lesion Apoptosis and Efferocytosis: Cell apoptosis was induced as indicated and detected by fluorescent labeled Annexin V staining and quantitated by either Flow Cytometry (BD 5 LSRII) or counting Annexin V positive cells in images captured under a fluorescent microscope. The apoptotic cells in atherosclerotic lesion were measured by TUNEL staining of cross-sections of atherosclerotic proximal aorta as previously described. The TUNEL positive cells not associated with live macrophages were considered free apoptotic cells and macrophage-associated apoptotic cells were considered phagocytosed as a measure of lesion efferocytosis as previously described.

[5] = system: ApoE−/− macrophage foam cells; assay: Capacity of HDL isolated from treated mice to reduce macrophage cholesterol; type: cell-based, mouse; conditions: HDL 25 μg protein/ml, 24 h
Description: as §1
HDL Isolation from Mouse Plasma and Measurement of HDL Capacity to Reduce Macrophage Cholesterol: HDL was isolated from mouse plasma using HDL Purification Kit (Cell BioLabs, Inc.) following the manufacturer's protocol. Briefly, apoB containing lipoproteins and HDL were sequentially precipitated with dextran sulfate. The HDL was then resuspended and washed. After removing the dextran sulfate, the HDL was dialyzed against PBS. To measure the capacity of the HDL to reduce macrophage cholesterol, apoE^−/− macrophages were cholesterol enriched by incubation for 48 h in DMEM containing 100 μg protein/ml of acetylated LDL. […] Cellular cholesterol was measured before and after incubation with HDL using an enzymatic cholesterol assay as described.

macrophages = assay: In vitro modification of LDL with MDA, then macrophage cholesterol content; type: cell-based; conditions: 2-HOBA present during LDL (5 mg/mL) modification with MDA (10 mM); versus vehicle; LDL with macrophages 24 h
Description: Modification of HDL and LDL with MDA: MDA was prepared immediately before use by rapid acid hydrolysis of maloncarbonyl bis-(dimethylacetal) as described. Briefly, 20 μL of 1 M HCl was added to 200 μL of maloncarbonyl bis-(dimethylacetal), and the mixture was incubated for 45 min at room temperature. The MDA concentration was determined by absorbance at 245 nm, using the coefficient factor 13, 700 M-1 cm-1. HDL (10 mg of protein/mL) and increasing doses of MDA (0, 0.125 mM, 0.25 mM, 0.5 mM, 1 mM) were incubated at 37° C. for 24 h in 50 mM sodium phosphate buffer (pH7.4) containing DTPA 100 μM. Reactions were initiated by adding MDA and stopped by dialysis of samples against PBS at 4° C. LDL (5 mg/mL) was modified in vitro with MDA (10 mM) in the presence of vehicle alone or with 2-HOBA at […] for 24 h in 50 mM sodium phosphate buffer (pH7.4) containing DTPA 100 μM. Reactions were initiated by adding MDA and stopped by dialysis of samples against PBS at 4° C. The LDL samples were incubated for 24 h with macrophages and the cholesterol content of the cells was measured using an enzymatic cholesterol assay as described.

MDA-HDL adducts = assay: Plasma MDA-HDL sandwich ELISA; type: in vivo, mouse; conditions: western diet 16 weeks
Description: as §1
(§5) Measurement of MDA-LDL, MDA-HDL, and MDA-ApoAI: Sandwich ELISA was used to measure plasma MDA-LDL and MDA-HDL levels following the manufacturer's instructions (Cell BioLabs, Inc.). Briefly, isolated LDL or HDL samples and MDA-HDL standards were added onto anti-MDA coated plates, and after blocking, the samples were incubated with biotinylated anti-apoB or anti-ApoAI primary antibody. The samples were then incubated for 1 h with streptavidin-enzyme conjugate and 15 min with substrate solution. After stopping the reaction, the O.D. was measured at 450 nm wavelength. MDA-ApoAI was detected in mouse plasma by immunoprecipitation of ApoAI and western blotting. […] Proteins were visualized and quantitated by Odyssey 3.0 Quantification software (LI-COR).

primary macrophages = assay: H2O2 induced apoptosis, Annexin V staining, macrophages; type: cell-based, mouse; conditions: 250 μM H2O2, 24 h; compared to vehicle or 4-HOBA
Description: as §3, §4

[6] = Body weight and plasma total cholesterol and triglyceride levels of treated mice; type: in vivo, mouse; conditions: compared to vehicle or 4-HOBA; data not shown
Description: as §1

[7] = system: atherosclerotic lesions of Ldlr^−/− mice; assay: Masson's Trichrome staining of lesions (collagen content, fibrous cap thickness, necrotic core); type: in vivo, mouse
Description: as §1
Masson's Trichrome Staining: Masson's Trichrome Staining was applied for measurement of atherosclerotic lesion collagen content, fibrous cap thickness and necrotic core size following the manufacture's instruction (Sigma) and as previously described. Briefly, 5 μm cross-sections of proximal atherosclerotic aorta root were fixed with Bouin's solution, stained with hematoxylin for nuclei (black), biebrich scarlet and phosphotungstic/phosphomolybdic acid for cytoplasm (red), and aniline blue for collagen (blue). Images were captured and analyzed for collagen content, atherosclerotic cap thickness and necrosis core by ImageJ software as described earlier.

MDA-LDL adducts = assay: Plasma MDA-LDL sandwich ELISA; type: in vivo, mouse; conditions: western diet 16 weeks
Description: as §1, §5

[8] = system: MDA content of proximal aortic atherosclerotic lesions in Ldlr^−/− mice; assay: MDA immunofluorescence of proximal aortic atherosclerotic lesions; type: in vivo, mouse
Description: as §1, §2

[9] = system: atherosclerotic lesions of Ldlr^−/− mice; assay: Lesion apoptosis (TUNEL) and efferocytosis in proximal aorta sections; type: in vivo, mouse
Description: as §1, §4

[10] = compared to Ldlr−/− mice consuming a chow diet
[11] = in contrast to vehicle or 4-HOBA
[12] = summary value, compared to vehicle or 4-HOBA

NCc1ccc(O)cc1 [4-HOBA, 4-hydroxybenzylamine, reference compound]
plasma apoAI levels (MDA-apoAI adducts; [10]): reduced | plasma levels of MDA-apoAI (MDA-apoAI adducts; [10]): markedly increased | reaction with lipid dicarbonyls (dicarbonyl scavenger) [1]: ineffective | atheroprotection ([2]; Ldlr−/− mice): not atheroprotective | oral bioavailability [3]: orally bioavailable

NCc1ccccc1O [2-HOBA, 2-hydroxybenzylamine]
IL-1β mRNA level (peritoneal macrophages): significantly reduced | IL-6 mRNA level (peritoneal macrophages): significantly reduced | TNF-α mRNA level (peritoneal macrophages): significantly reduced | plasma MDA-apoAI adducts (MDA-apoAI adducts; [11]): dramatically reduced | plasma apoAI levels (MDA-apoAI adducts; [11]): increased | reaction with lipid monocarbonyls [4]: not with lipid monocarbonyls | number of apoptotic cells in endothelial cell cultures (aortic endothelial cells): markedly decreased | efficiency of HDL from treated mice at reducing cholesterol stores in macrophage foam cells, fold ([5]; versus 4-HOBA treated mice): 1.7 fold | efficiency of HDL from treated mice at reducing cholesterol stores in macrophage foam cells, fold ([5]; versus vehicle treated mice): 2.2 fold | ability of MDA modified LDL to increase cholesterol accumulation in macrophages (macrophages): reduced | reduction of plasma MDA-HDL levels (MDA-HDL adducts; compared to 4-HOBA): 56% | reduction of plasma MDA-HDL levels (MDA-HDL adducts; compared to vehicle): 57% | number of apoptotic cells in macrophage cultures (primary macrophages): markedly decreased | effect on body weight [6]: did not affect | reaction with lipid dicarbonyls (dicarbonyl scavenger) [1]: rapidly reacts | increase of collagen content of the proximal aorta ([7]; compared to 4-HOBA): 2.6 fold | increase of collagen content of the proximal aorta ([7]; compared to vehicle): 2.7 fold | increased collagen content ([7]; summary value): 2.7 fold | increased fibrous cap thickness ([7]; summary value): 2.1 fold | reduction in necrotic core ([7]; summary value, p<0.01): 69% | decrease of % necrotic area in the proximal aorta ([7]; versus 4-HOBA): 73.5% | fibrous cap thickness, fold greater ([7]; versus 4-HOBA treated mice): 2.29 fold | decrease of % necrotic area in the proximal aorta ([7]; versus vehicle): 74.8% | fibrous cap thickness, fold greater ([7]; versus vehicle treated mice): 2.31 fold | reduction of atherosclerosis, en face analysis of the aorta ([2]; compared to 4-HOBA): 59.1% | reduction of the extent of proximal aortic atherosclerosis ([2]; compared to 4-HOBA): 31.5% | reduction of atherosclerosis, en face analysis of the aorta ([2]; compared to vehicle): 60.3% | reduction of the extent of proximal aortic atherosclerosis ([2]; compared to vehicle): 31.1% | decrease of atherosclerosis in en face aortas [2, 12]: 60% | decrease of atherosclerosis in the proximal aortas [2, 12]: 31% | reduction of plasma MDA-LDL levels (MDA-LDL adducts; compared to 4-HOBA): 54% | reduction of plasma MDA-LDL levels (MDA-LDL adducts; compared to vehicle): 57% | reduction of MDA levels in the proximal aorta ([8]; compared to 4-HOBA): 66.8% | reduction of MDA levels in the proximal aorta ([8]; compared to vehicle alone): 68.5% | number of TUNEL positive cells not associated with macrophages, fold increase (efferocytosis) ([9]; 4-HOBA treated mice versus 2-HOBA treated mice): 2.0 fold | reduction of the number of TUNEL positive cells in the proximal aortic lesion ([9]; compared to 4-HOBA): 72.4% | reduction of the number of TUNEL positive cells in the proximal aortic lesion ([9]; compared to vehicle): 72.9% | reduction of the number of atherosclerotic lesion TUNEL positive cells ([9]; summary value, compared to 4-HOBA or vehicle treated mice): 72% | number of TUNEL positive cells not associated with macrophages, fold increase (efferocytosis) ([9]; vehicle treated mice versus 2-HOBA treated mice): 1.9 fold | oral bioavailability [3]: orally bioavailable
